Measurements reported in PubChem BioAssay (NCI).
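Abbreviation: GI50, concentration required for 50% inhibition of growth. TGI denotes the concentration required for complete inhibition of growth.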

How the values were obtained:
Test in all cases: DTP human tumour cell line panel, 384-well format
HS 578T breast = system: HS 578T breast
SK-MEL-5 melanoma = system: SK-MEL-5 melanoma
HOP-92 NSCLC = system: HOP-92 NSCLC
CCRF-CEM leukemia = system: CCRF-CEM leukemia
SW-620 colon = system: SW-620 colon
SF-539 CNS = system: SF-539 CNS
U251 glioblastoma = system: U251 glioblastoma
SNB-75 CNS = system: SNB-75 CNS
CAKI-1 renal = system: CAKI-1 renal
OVCAR-3 ovarian = system: OVCAR-3 ovarian
OVCAR-5 ovarian = system: OVCAR-5 ovarian
HT29 colon = system: HT29 colon
RPMI-8226 leukemia = system: RPMI-8226 leukemia
BT-549 breast = system: BT-549 breast
HL-60(TB) leukemia = system: HL-60(TB) leukemia
HOP-62 NSCLC = system: HOP-62 NSCLC
KM12 colon = system: KM12 colon
A498 renal = system: A498 renal
NCI/ADR-RES ovarian = system: NCI/ADR-RES ovarian
NCI-H226 lung = system: NCI-H226 lung
OVCAR-4 ovarian = system: OVCAR-4 ovarian
MDA-MB-231 breast = system: MDA-MB-231 breast
NCI-H23 lung = system: NCI-H23 lung
PC-3 prostate = system: PC-3 prostate
UO-31 renal = system: UO-31 renal
SF-268 CNS = system: SF-268 CNS
OVCAR-8 ovarian = system: OVCAR-8 ovarian
RXF 393 renal = system: RXF 393 renal
A549 NSCLC = system: A549 NSCLC
EKVX NSCLC = system: EKVX NSCLC
SK-OV-3 ovarian = system: SK-OV-3 ovarian
786-0 renal = system: 786-0 renal
SNB-19 CNS = system: SNB-19 CNS
MDA-MB-435 melanoma = system: MDA-MB-435 melanoma
DU-145 prostate = system: DU-145 prostate
UACC-257 melanoma = system: UACC-257 melanoma
SR leukemia = system: SR leukemia
LOX IMVI melanoma = system: LOX IMVI melanoma
K-562 leukemia = system: K-562 leukemia
UACC-62 melanoma = system: UACC-62 melanoma
SN12C renal = system: SN12C renal
IGROV1 ovarian = system: IGROV1 ovarian
HCC-2998 colon = system: HCC-2998 colon
HCT-116 colon = system: HCT-116 colon
NCI-H322M lung = system: NCI-H322M lung
NCI-H460 NSCLC = system: NCI-H460 NSCLC
SF-295 CNS = system: SF-295 CNS
NCI-H522 lung = system: NCI-H522 lung
MOLT-4 leukemia = system: MOLT-4 leukemia
COLO 205 colon = system: COLO 205 colon
MCF7 breast = system: MCF7 breast
HCT-15 colon = system: HCT-15 colon
ACHN renal = system: ACHN renal
SK-MEL-2 melanoma = system: SK-MEL-2 melanoma
MALME-3M melanoma = system: MALME-3M melanoma
T-47D breast = system: T-47D breast
M14 melanoma = system: M14 melanoma
TK-10 renal = system: TK-10 renal
SK-MEL-28 melanoma = system: SK-MEL-28 melanoma

CN1C(=O)[C@@H](NC(=O)[C@H](CCC(F)(F)F)[C@H](CCC(F)(F)F)C(N)=O)N=C(c2ccccc2)c2ccccc21
GI50 (HS 578T breast): 24.7 µM
TGI (HS 578T breast): > 100 µM
GI50 (SK-MEL-5 melanoma): > 59.4 µM
TGI (SK-MEL-5 melanoma): > 100 µM
GI50 (HOP-92 NSCLC): 33.9 µM
TGI (HOP-92 NSCLC): > 100 µM
GI50 (CCRF-CEM leukemia): 53.3 µM
TGI (CCRF-CEM leukemia): > 100 µM
GI50 (SW-620 colon): > 100 µM
TGI (SW-620 colon): > 100 µM
GI50 (SF-539 CNS): > 100 µM
TGI (SF-539 CNS): > 100 µM
GI50 (U251 glioblastoma): 98.8 µM
TGI (U251 glioblastoma): > 100 µM
GI50 (SNB-75 CNS): 17.3 µM
TGI (SNB-75 CNS): 96.8 µM
GI50 (CAKI-1 renal): 58.2 µM
TGI (CAKI-1 renal): > 100 µM
GI50 (OVCAR-3 ovarian): 55.9 µM
TGI (OVCAR-3 ovarian): > 100 µM
GI50 (OVCAR-5 ovarian): > 100 µM
TGI (OVCAR-5 ovarian): > 100 µM
GI50 (HT29 colon): 62.5 µM
TGI (HT29 colon): > 100 µM
GI50 (RPMI-8226 leukemia): 48.3 µM
TGI (RPMI-8226 leukemia): > 100 µM
GI50 (BT-549 breast): > 100 µM
TGI (BT-549 breast): > 100 µM
GI50 (HL-60(TB) leukemia): > 51.6 µM
TGI (HL-60(TB) leukemia): > 100 µM
GI50 (HOP-62 NSCLC): > 100 µM
TGI (HOP-62 NSCLC): > 100 µM
GI50 (KM12 colon): > 100 µM
TGI (KM12 colon): > 100 µM
GI50 (A498 renal): 42 µM
TGI (A498 renal): > 100 µM
GI50 (NCI/ADR-RES ovarian): > 100 µM
TGI (NCI/ADR-RES ovarian): > 100 µM
GI50 (NCI-H226 lung): > 52.7 µM
TGI (NCI-H226 lung): > 100 µM
GI50 (OVCAR-4 ovarian): 43.4 µM
TGI (OVCAR-4 ovarian): > 100 µM
GI50 (MDA-MB-231 breast): > 93.3 µM
TGI (MDA-MB-231 breast): > 100 µM
GI50 (NCI-H23 lung): > 100 µM
TGI (NCI-H23 lung): > 100 µM
GI50 (PC-3 prostate): > 94.6 µM
TGI (PC-3 prostate): > 100 µM
GI50 (UO-31 renal): 60.1 µM
TGI (UO-31 renal): > 100 µM
GI50 (SF-268 CNS): > 43.9 µM
TGI (SF-268 CNS): > 90.2 µM
GI50 (OVCAR-8 ovarian): > 100 µM
TGI (OVCAR-8 ovarian): > 100 µM
GI50 (RXF 393 renal): 23.9 µM
TGI (RXF 393 renal): > 84.7 µM
GI50 (A549 NSCLC): 67.5 µM
TGI (A549 NSCLC): > 100 µM
GI50 (EKVX NSCLC): > 100 µM
TGI (EKVX NSCLC): > 100 µM
GI50 (SK-OV-3 ovarian): > 100 µM
TGI (SK-OV-3 ovarian): > 100 µM
GI50 ([…]-0 renal): 87.1 µM
TGI (786-0 renal): > 100 µM
GI50 (SNB-19 CNS): > 100 µM
TGI (SNB-19 CNS): > 100 µM
GI50 (MDA-MB-435 melanoma): > 100 µM
TGI (MDA-MB-435 melanoma): > 100 µM
GI50 (DU-145 prostate): > 100 µM
TGI (DU-145 prostate): > 100 µM
GI50 (UACC-257 melanoma): > 63.2 µM
TGI (UACC-257 melanoma): > 100 µM
GI50 (SR leukemia): 13.6 µM
TGI (SR leukemia): 33.6 µM
GI50 (LOX IMVI melanoma): > 100 µM
TGI (LOX IMVI melanoma): > 100 µM
GI50 (K-562 leukemia): 71.6 µM
TGI (K-562 leukemia): > 100 µM
GI50 (UACC-62 melanoma): > 100 µM
TGI (UACC-62 melanoma): > 100 µM
GI50 (SN12C renal): > 100 µM
TGI (SN12C renal): > 100 µM
GI50 (IGROV1 ovarian): > 100 µM
TGI (IGROV1 ovarian): > 100 µM
GI50 (HCC-2998 colon): > 100 µM
TGI (HCC-2998 colon): > 100 µM
GI50 (HCT-116 colon): > 92.7 µM
TGI (HCT-116 colon): > 100 µM
GI50 (NCI-H322M lung): > 100 µM
TGI (NCI-H322M lung): > 100 µM
GI50 (NCI-H460 NSCLC): 84.4 µM
TGI (NCI-H460 NSCLC): > 100 µM
GI50 (SF-295 CNS): 99.5 µM
TGI (SF-295 CNS): > 100 µM
GI50 (NCI-H522 lung): 79.9 µM
TGI (NCI-H522 lung): > 100 µM
GI50 (MOLT-4 leukemia): 19.8 µM
TGI (MOLT-4 leukemia): > 100 µM
GI50 (COLO 205 colon): > 79.5 µM
TGI (COLO 205 colon): > 100 µM
GI50 (MCF7 breast): 40.9 µM
TGI (MCF7 breast): > 100 µM
GI50 (HCT-15 colon): > 95.7 µM
TGI (HCT-15 colon): > 100 µM
GI50 (ACHN renal): > 100 µM
TGI (ACHN renal): > 100 µM
GI50 (SK-MEL-2 melanoma): > 100 µM
TGI (SK-MEL-2 melanoma): > 100 µM
GI50 (MALME-3M melanoma): > 100 µM
TGI (MALME-3M melanoma): > 100 µM
GI50 (T-47D breast): 14.6 µM
TGI (T-47D breast): 65 µM
GI50 (M14 melanoma): > 100 µM
TGI (M14 melanoma): > 100 µM
GI50 (TK-10 renal): > 100 µM
TGI (TK-10 renal): > 100 µM
GI50 (SK-MEL-28 melanoma): > 83.8 µM
TGI (SK-MEL-28 melanoma): > 100 µM
